Data reported in ChEMBL document CHEMBL3046330, “Synthesis and biological activity of hydrazidehydrazones and their corresponding 3-acetyl-2,5-disubstituted-2,3-dihydro-1,3,4-oxadiazoles” (Med Chem Res, 2012).
In brackets after ≈: the same amount, converted by molar mass. Activity calls are given as the source filed them. No cut-off for these calls is given here.

Columns and labels:
[1] = target: T1, Nitric oxide synthase, inducible (Mus musculus) (UniProt P29477); experiment: Inhibition of iNOS in Mus musculus (mouse) RAW264.7 cells assessed as inhibition of LPS-induced nitrite production up to 25 ug/ml incubated for 30 min prior to LPS challenge measured after 24 hr by Griess assay relative to vehicle-treated control; type: cell-based
T1 sequence (whole entry): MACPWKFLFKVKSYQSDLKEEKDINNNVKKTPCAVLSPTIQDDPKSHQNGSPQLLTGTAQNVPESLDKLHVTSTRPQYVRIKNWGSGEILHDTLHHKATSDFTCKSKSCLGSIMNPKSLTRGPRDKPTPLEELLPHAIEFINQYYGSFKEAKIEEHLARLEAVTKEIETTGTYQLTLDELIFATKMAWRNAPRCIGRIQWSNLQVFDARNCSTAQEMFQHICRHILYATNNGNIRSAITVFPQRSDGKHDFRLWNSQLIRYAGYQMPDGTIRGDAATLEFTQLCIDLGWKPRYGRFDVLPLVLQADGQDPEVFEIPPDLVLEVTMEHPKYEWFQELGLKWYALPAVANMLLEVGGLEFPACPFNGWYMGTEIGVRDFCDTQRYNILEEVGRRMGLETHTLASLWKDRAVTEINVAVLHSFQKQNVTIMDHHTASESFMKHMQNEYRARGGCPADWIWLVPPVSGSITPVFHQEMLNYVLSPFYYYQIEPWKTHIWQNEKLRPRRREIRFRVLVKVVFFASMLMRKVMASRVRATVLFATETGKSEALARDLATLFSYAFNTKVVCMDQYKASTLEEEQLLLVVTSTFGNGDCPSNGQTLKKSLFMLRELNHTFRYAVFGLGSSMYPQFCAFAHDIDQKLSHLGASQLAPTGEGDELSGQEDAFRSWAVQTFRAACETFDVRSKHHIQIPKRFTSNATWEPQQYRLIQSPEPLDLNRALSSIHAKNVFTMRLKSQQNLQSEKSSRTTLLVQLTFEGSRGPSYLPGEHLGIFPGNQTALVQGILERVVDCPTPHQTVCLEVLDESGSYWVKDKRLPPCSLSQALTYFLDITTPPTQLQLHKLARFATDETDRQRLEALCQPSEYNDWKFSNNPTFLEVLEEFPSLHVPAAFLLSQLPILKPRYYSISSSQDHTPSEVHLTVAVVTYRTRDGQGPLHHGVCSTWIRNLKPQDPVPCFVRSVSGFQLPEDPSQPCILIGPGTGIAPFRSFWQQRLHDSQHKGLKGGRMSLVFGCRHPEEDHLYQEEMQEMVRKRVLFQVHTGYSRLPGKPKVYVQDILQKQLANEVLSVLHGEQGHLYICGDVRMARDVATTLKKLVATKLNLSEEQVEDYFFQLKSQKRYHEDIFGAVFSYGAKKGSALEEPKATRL

RAW264.7 = experiment: Cytotoxicity against Mus musculus (mouse) RAW264.7 cells up to 25 ug/ml; type: cell-based
HL-60 [2] = experiment: Antioxidant activity in PMA-stimulated Homo sapiens (human) HL60 cells assessed as inhibition of intracellular ROS generation up to 25 ug/ml incubated for 30 min prior to PMA stimulation measured after 30 min by DCFH-DA assay relative to vehicle-treated control; type: functional, cell-based
HL-60 [3] = experiment: Cytotoxicity against Homo sapiens (human) HL60 cells up to 25 ug/ml; type: cell-based
Vero = experiment: Cytotoxicity against Chlorocebus aethiops (African green monkey) Vero cells assessed as cell viability up to 25 ug/ml after 48 hr by neutral red assay; type: cell-based; conditions: chlorocebus sabaeus
[4] = Cytotoxicity against Sus scrofa (pig) LLC-PK11 cells assessed as cell viability up to 25 ug/ml after 48 hr by neutral red assay; type: cell-based; conditions: llc-pk11, 48 h
SK-MEL = experiment: Cytotoxicity against Homo sapiens (human) SK-MEL cells assessed as cell viability up to 25 ug/ml after 48 hr by neutral red assay; type: functional, cell-based
KB = experiment: Cytotoxicity against Homo sapiens (human) KB cells assessed as cell viability up to 25 ug/ml after 48 hr by neutral red assay; type: functional, cell-based
BT-549 = experiment: Cytotoxicity against Homo sapiens (human) BT549 cells assessed as cell viability up to 25 ug/ml after 48 hr by neutral red assay; type: functional, cell-based
Candida albicans [5] = experiment: Antifungal activity against Candida albicans NRRL Y-12983 after 24 hr by NCCLS broth microdilution method; type: functional; conditions: NRRL Y-12983, 24 h
Nakaseomyces glabratus = experiment: Antifungal activity against Candida glabrata clinical isolate after 24 hr by NCCLS broth microdilution method; type: functional
Candida parapsilosis = experiment: Antifungal activity against Candida parapsilosis NRRL Y-12696 after 24 hr by NCCLS broth microdilution method; type: functional; conditions: Lodderomyces parapsilosis, NRRL Y-12696, 24 h
Pichia kudriavzevii = experiment: Antifungal activity against Pichia kudriavzevii NRRL Y-7179 after 24 hr by NCCLS broth microdilution method; type: functional; conditions: NRRL Y-7179, 24 h
Cyberlindnera jadinii = experiment: Antifungal activity against Cyberlindnera jadinii NRRL Y-900 after 24 hr by NCCLS broth microdilution method; type: functional; conditions: Williopsis jadinii, NRRL Y-900, 24 h
Candida albicans [6] = experiment: Antifungal activity against Candida albicans ATCC 90028 after 24 hr by NCCLS broth microdilution method; type: functional; conditions: ATCC 90028, 24 h
Candida tropicalis [7] = experiment: Antifungal activity against Candida tropicalis NRRL Y-12968 at 2000 ug/ml by agar diffusion method; type: functional; conditions: read-out: IZ
Candida albicans [8] = experiment: Antifungal activity against Candida albicans clinical isolate at 2000 ug/ml by agar diffusion method; type: functional; conditions: read-out: IZ
[9] = Inhibition of PMA-induced NFkappaB activity in Homo sapiens (human) SW1353 cells incubated for 30 min followed by PMA induction for 8 hr by luciferase reporter gene assay; type: cell-based
SK-OV-3 = experiment: Cytotoxicity against Homo sapiens (human) SKOV3 cells assessed as cell viability up to 25 ug/ml after 48 hr by neutral red assay; type: functional, cell-based
HL-60 [10] = experiment: Antioxidant activity in PMA-stimulated Homo sapiens (human) HL60 cells assessed as inhibition of intracellular ROS generation incubated for 30 min prior to PMA stimulation measured after 30 min by DCFH-DA assay; type: functional, cell-based
HL-60 [11] = experiment: Cytotoxicity against Homo sapiens (human) HL60 cells; type: cell-based
Candida tropicalis [12] = experiment: Antifungal activity against Candida tropicalis NRRL Y-12968 after 24 hr by NCCLS broth microdilution method; type: functional; conditions: NRRL Y-12968, 24 h
Candida albicans [13] = experiment: Antifungal activity against Candida albicans clinical isolate after 24 hr by NCCLS broth microdilution method; type: functional
Transcription factor Sp1 = Transcription factor Sp1 (Homo sapiens, UniProt P08047); experiment: Inhibition of Sp1 (unknown origin) up to 25 ug/ml by luciferase reporter gene assay
SW1353 = experiment: Inhibition of PMA-induced NFkappaB activity in Homo sapiens (human) SW1353 cells up to 25 ug/ml incubated for 30 min followed by PMA induction for 8 hr by luciferase reporter gene assay; type: cell-based
[14] = target: T2, Nitric oxide synthase, inducible (Mus musculus, UniProt P29477); experiment: Inhibition of iNOS in Mus musculus (mouse) RAW264.7 cells assessed as inhibition of LPS-induced nitrite production incubated for 30 min prior to LPS challenge measured after 24 hr by Griess assay; type: cell-based
T2 sequence (P29477 whole entry): T1 sequence (whole entry)

Colletotrichum fragariae = experiment: Antifungal activity against Colletotrichum fragariae at 0.3 to 30 uM after 48 to 72 hr by broth microdilution method; type: functional, organism-based
Botrytis cinerea = experiment: Antifungal activity against Botryotinia fuckeliana at 0.3 to 30 uM after 48 to 72 hr by broth microdilution method; type: functional, organism-based

Sequence of Transcription factor Sp1 (P08047 whole entry): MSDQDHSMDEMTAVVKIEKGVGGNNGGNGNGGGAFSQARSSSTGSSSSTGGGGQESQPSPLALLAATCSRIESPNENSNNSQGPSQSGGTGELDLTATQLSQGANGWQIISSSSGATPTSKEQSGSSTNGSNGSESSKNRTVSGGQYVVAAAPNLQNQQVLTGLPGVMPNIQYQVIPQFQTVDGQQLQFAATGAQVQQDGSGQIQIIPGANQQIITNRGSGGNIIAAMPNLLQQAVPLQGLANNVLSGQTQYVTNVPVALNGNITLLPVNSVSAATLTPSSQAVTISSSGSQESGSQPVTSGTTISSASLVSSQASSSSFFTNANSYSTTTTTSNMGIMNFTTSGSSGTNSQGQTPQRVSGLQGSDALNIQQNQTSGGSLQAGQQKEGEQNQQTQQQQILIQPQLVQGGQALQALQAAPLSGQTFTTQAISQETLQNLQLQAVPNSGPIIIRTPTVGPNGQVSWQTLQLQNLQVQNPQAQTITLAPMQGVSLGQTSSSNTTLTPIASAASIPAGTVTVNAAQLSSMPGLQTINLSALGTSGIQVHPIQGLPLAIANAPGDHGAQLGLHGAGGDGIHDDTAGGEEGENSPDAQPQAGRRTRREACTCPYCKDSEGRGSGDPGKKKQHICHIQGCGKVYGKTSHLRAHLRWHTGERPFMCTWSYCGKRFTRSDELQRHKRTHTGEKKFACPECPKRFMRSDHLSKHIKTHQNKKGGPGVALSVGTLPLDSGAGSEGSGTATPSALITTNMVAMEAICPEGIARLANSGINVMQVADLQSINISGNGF

SMILES	inhibition [1]	Activity (RAW264.7)	Activity (Vero)	Activity [4]	Activity (SK-MEL)	Activity (KB)	Activity (BT-549)	MIC (Candida albicans [5])	MIC (Nakaseomyces glabratus)	MIC (Candida parapsilosis)	MIC (Pichia kudriavzevii)	MIC (Cyberlindnera jadinii)	MIC (Candida albicans [6])	zone of inhibition at 2000 µg/mL (Candida tropicalis [7])	zone of inhibition at 2000 µg/mL (Candida albicans [8])	Activity (SK-OV-3)	IC50 (HL-60 [10])	IC50 (HL-60 [11])	MIC (Candida tropicalis [12])	inhibition (INH) (Transcription factor Sp1)	other results
O=C(N/N=C/c1ccccc1)c1ccc(F)cc1	inactive	Non-toxic	Not Active	Not Active	inactive	inactive	inactive	500 µg/mL (≈ 2060 µM)	250 µg/mL (≈ 1030 µM)	250 µg/mL (≈ 1030 µM)	500 µg/mL (≈ 2060 µM)	500 µg/mL (≈ 2060 µM)	500 µg/mL (≈ 2060 µM)	9 mm	9 mm	inactive	–	–	–	–	inhibition (HL-60 [2]): inactive; Activity (HL-60 [3]): Non-toxic; IC50 [9]: 2.8 µg/mL (≈ 11.6 µM)
CC(=O)N1N=C(c2ccc(F)cc2)OC1c1ccco1 (stereo not drawn)	inactive	Non-toxic	Not Active	Not Active	inactive	inactive	inactive	500 µg/mL (≈ 1820 µM)	500 µg/mL (≈ 1820 µM)	1000 µg/mL (≈ 3650 µM)	500 µg/mL (≈ 1820 µM)	500 µg/mL (≈ 1820 µM)	1000 µg/mL (≈ 3650 µM)	9 mm	9 mm	inactive	5.2 µg/mL (≈ 19 µM)	24 µg/mL (≈ 87.5 µM)	500 µg/mL (≈ 1820 µM)	Not Active	MIC (Candida albicans [13]): 500 µg/mL (≈ 1820 µM); inhibition (SW1353): inactive
O=C(N/N=C/c1ccco1)c1ccc(F)cc1	–	Non-toxic	Not Active	Not Active	inactive	inactive	inactive	500 µg/mL (≈ 2150 µM)	250 µg/mL (≈ 1080 µM)	500 µg/mL (≈ 2150 µM)	500 µg/mL (≈ 2150 µM)	500 µg/mL (≈ 2150 µM)	500 µg/mL (≈ 2150 µM)	9 mm	9 mm	inactive	0.7 µg/mL (≈ 3.01 µM)	27 µg/mL (≈ 116 µM)	500 µg/mL (≈ 2150 µM)	Not Active	MIC (Candida albicans [13]): 250 µg/mL (≈ 1080 µM); inhibition (SW1353): inactive; IC50 [14]: > 108000 nM
CC(=O)N1N=C(c2ccc(F)cc2)OC1c1ccc(O)cc1 (stereo not drawn)	–	Non-toxic	Not Active	Not Active	inactive	inactive	inactive	500 µg/mL (≈ 1670 µM)	500 µg/mL (≈ 1670 µM)	250 µg/mL (≈ 833 µM)	250 µg/mL (≈ 833 µM)	125 µg/mL (≈ 416 µM)	500 µg/mL (≈ 1670 µM)	9 mm	9 mm	inactive	–	–	250 µg/mL (≈ 833 µM)	Not Active	inhibition (HL-60 [2]): inactive; Activity (HL-60 [3]): Non-toxic; Activity (Colletotrichum fragariae): inactive; Activity (Botrytis cinerea): inactive; MIC (Candida albicans [13]): 250 µg/mL (≈ 833 µM); IC50 [9]: 5.5 µg/mL (≈ 18.3 µM); IC50 [14]: 999 nM
CN(C)c1ccc(/C=N/NC(=O)c2ccc(F)cc2)cc1	inactive	Non-toxic	Not Active	Not Active	inactive	inactive	inactive	500 µg/mL (≈ 1750 µM)	125 µg/mL (≈ 438 µM)	500 µg/mL (≈ 1750 µM)	500 µg/mL (≈ 1750 µM)	500 µg/mL (≈ 1750 µM)	500 µg/mL (≈ 1750 µM)	9 mm	9 mm	inactive	23 µg/mL (≈ 80.6 µM)	> 31.2 µg/mL	500 µg/mL (≈ 1750 µM)	Not Active	inhibition (SW1353): inactive
